Entries after “also recorded” stand apart in the source; their conditions may differ. Where two headings read alike, the source gives them in different places.
Columns and labels:
[1] = molecular target: T1, mouse β2-adrenergic receptor (Mus musculus, UniProt P18762); test: Ca2+ imaging of HEK-293 cells transfected with β2-R-GFP (control); assay type: cell-based; settings: BAY 44-4400 present
T1 construct: was fused with a C-terminal EGFP tag by amplifying the full-length cDNA with the P117 mouse 2AR XhoI 5′ primer; expressed in transfected cells; host or cells: HEK-293, transient (pEGFP-N3)
Method: (§1) The intracellular free Ca^2+ concentration [Ca^2+]i was measured in COS-7 and HEK293 cells transiently transfected with the HC110-R-EGFP or β2-AR-EGFP construct using the calcium imaging method (see also FIG. 11). In each case 2×10^5 COS-7 and HEK293 cells were applied to a 42 mm cover glass coated with 1% gelatine in 55 mm tissue culture dishes with 5 ml of DMEM medium (with 10% FCS and pen/strep). The transfection took place with the aid of the non-liposomal transfection reagent FuGENE 6 (Roche Molecular Biochemicals, Mannheim). […] Constructs of the HC110-R full-length clone with a GFP tag fused in the correct reading frame, and the complete cDNA of the β2-adrenergic receptor which had likewise been provided with a GFP tag at the 3′ end, were transfected.
(§2) After the incubation, the cells loaded with Fura-2/AM were examined under an inverted microscope (Zeiss, Axiovert, Germany) and, in parallel with this, in a digital imaging fluorescence microscope (PTI) and differentiated into transfected and untransfected cells at a wavelength of 440 and 490 nm respectively. On average, 5-7 transfected and non transfected cells were selected by fixing an ROI (region of interest). The extinction was measured at 340 nm (calcium-bound Fura-2/AM) and 380 nm (free Fura-2/AM), and the emission was measured at 510 nm. Evaluation took place using the Image Master 1.x software by forming the quotient of 340:510 nm, 380:510 nm and the ratio of 340/380:510 nm (background corrected images) as a function of the agent added.
Agents were always added 6 min after starting the measurement by removing an appropriate volume of Na^+ HBS buffer and pipetting the agent directly into the sample vessel for a further 30 to 50 min. The total volume in the sample vessel was constant at 1.5 ml throughout the experiment. […] Addition of CdCl2 and nifedipine took place immediately at the start of the experiment and before addition of α-LTX, and EGTA was added both at the start of the experiment and 4 min after the addition of α-LTX. […]
The data were analyzed using the Excel 98 table calculation programme. […]

[2] = system: HC110-R; assay type: binding, Haemonchus contortus
Source text: Since denaturation of proteins is necessary for carrying out SDS-PAGE, there may be destruction of conformation-dependent epitopes. Antibodies or proteins which specifically recognize such epitopes may therefore no longer bind. […] BAY44-4400 differs from PF1022A by 2 morpholine residues which are covalently bonded to the phenyl rings of the two D-phenyllactyl radicals of PF1022A. […] For this purpose, total protein from untransfected HEK-293 cells and HEK-293 cells which transiently express HC110-R-Myc/His, and from the 54 kDa N terminus and the 21 kDa C terminus of HC110-R which were expressed in E. coli, were fractionated by SDS-PAGE, renatured and blotted in the usual way. […] In addition, a partially renatured SDS polyacrylamide gel with the protein fractions of untransfected HEK-293 cells, HEK-293 cells transiently transfected with HC110-R-Myc/His, and the N terminus of HC110-R expressed in E. coli and total protein from H. contortus was blotted, incubated with PF1022A-biotin and detected using streptavidin HRP.

[3] = system: nematodes; test: Anthelmintic / neuropharmacological activity on nematodes
[4] = molecular target: T2, human muscarinic M1 acetylcholine receptor (Homo sapiens, UniProt P11229); assay type: cell-based; settings: 400 ng/ml BAY44-4400
T2 construct: The full-length cDNA of a human muscarinic receptor 1 (huM1Rez); expressed in transfected cells; host or cells: HEK-293, transient (pEGFP-N3)
T2 sequence (P11229 1-460): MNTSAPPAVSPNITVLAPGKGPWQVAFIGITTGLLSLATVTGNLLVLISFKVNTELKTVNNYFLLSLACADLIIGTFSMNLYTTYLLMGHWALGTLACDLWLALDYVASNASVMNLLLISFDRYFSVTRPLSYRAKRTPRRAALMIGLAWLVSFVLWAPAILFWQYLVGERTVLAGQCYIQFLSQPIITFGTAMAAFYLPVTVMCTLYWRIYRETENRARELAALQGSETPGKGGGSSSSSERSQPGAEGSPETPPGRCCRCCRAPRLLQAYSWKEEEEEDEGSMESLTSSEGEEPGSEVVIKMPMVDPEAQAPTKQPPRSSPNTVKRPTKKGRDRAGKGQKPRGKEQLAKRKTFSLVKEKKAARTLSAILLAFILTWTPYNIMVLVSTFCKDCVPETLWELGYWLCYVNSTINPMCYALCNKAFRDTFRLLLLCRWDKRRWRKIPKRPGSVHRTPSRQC

[5] = system: HC110-R; test: Ca2+ imaging of HEK-293 cells expressing HC110-R-Myc/His; assay type: cell-based, Haemonchus contortus; settings: stably expressing cells; 400 ng/ml added 6 min before 75 nM α-LTX
[6] = system: HC110-R; assay type: cell-based, Haemonchus contortus; settings: for Ca2+ response to substance alone: 400 ng/ml where stated, up to 50 min or 90 min preincubation
Method: as §1, §2
Agents were always added 6 min after starting the measurement by removing an appropriate volume of Na^+ HBS buffer and pipetting the agent directly into the sample vessel for a further 30 to 50 min. The total volume in the sample vessel was constant at 1.5 ml throughout the experiment. […] Addition of CdCl2 and nifedipine took place immediately at the start of the experiment and before addition of α-LTX, and EGTA was added both at the start of the experiment and 4 min after the addition of α-LTX. Dissolved α-LTX was present in a concentration of 300 nM in 50 mM tris-HCl, pH 8.0; BAY 44-4400 was initially dissolved in pure DMSO (stock solutions between 0.004 and 10 μg/ml). The stock solutions were adjusted to the required concentration in the Na^+ HBS buffer. The maximum amount of the active substance BAY 44-4400 which could be dissolved at a final concentration of 0.1% DMSO was found by setting up serial dilutions in Na^+ HBS.
The data were analyzed using the Excel 98 table calculation programme. The results are derived from at least 2-4 reproduced experiments on in each case 4-8 transfected and un-transfected cells.

[7] = 4 ng/ml added 6 min before 75 nM α-LTX

T1 sequence (P18762 whole entry, the tested form may be a part): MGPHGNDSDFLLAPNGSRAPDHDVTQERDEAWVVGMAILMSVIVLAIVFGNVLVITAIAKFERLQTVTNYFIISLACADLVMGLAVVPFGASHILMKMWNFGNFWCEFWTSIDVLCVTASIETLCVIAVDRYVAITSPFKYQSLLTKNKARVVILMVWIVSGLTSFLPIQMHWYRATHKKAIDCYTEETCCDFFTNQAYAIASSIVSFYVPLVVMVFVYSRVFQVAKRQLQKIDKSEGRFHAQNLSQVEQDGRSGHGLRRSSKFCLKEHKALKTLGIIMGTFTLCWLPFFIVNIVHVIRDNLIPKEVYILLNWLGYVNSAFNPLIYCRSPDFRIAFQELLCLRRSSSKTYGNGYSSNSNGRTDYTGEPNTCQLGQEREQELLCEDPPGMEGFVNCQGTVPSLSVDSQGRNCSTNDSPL

In the case of `CC(C)C[C@H]1C(=O)O[C@H](Cc2ccc(N3CCOCC3)cc2)C(=O)N(C)[C@@H](CC(C)C)C(=O)O[C@H](C)C(=O)N(C)[C@@H](CC(C)C)C(=O)O[C@H](Cc2ccc(N3CCOCC3)cc2)C(=O)N(C)[C@@H](CC(C)C)C(=O)O[C@H](C)C(=O)N1C` [BAY44-4400, cyclo(-D-Lac-L-MeLeu-D-p-morpholinyl-PhLac-L-MeLeu-)], the “effect on isoproterenol-induced Ca2+ increase” value [1] was “does not interfere with the isoproterenol-induced signal transmission”, the “effect on isoproterenol-induced Ca2+ increase” value ([1]; listed as BAY 44-4400) was “unaffected by BAY 44-4400” and the “HC110-R-specific binding in a Western blot” value ([2]; denatured proteins, no renaturation) was “not identifiable”. The “band in HEK-293 cells expressing HC110-R-Myc/His” value ([2]; renatured with urea, no band in untransfected cells) was “distinct band 116 kDa in size”, the “binding to 54 kDa N terminus of HC110-R” value ([2]; renatured, fragment expressed in E. coli) was “bound to the 54 kDa N terminus of HC110-R” and the “anthelmintic / nematicidal activity in words” value [3] was “very effective nematicide”. The “carbachol-induced increase in [Ca2+]i in presence of BAY44-4400” value [4] was 89 ± 5.5 nM, the “α-LTX-induced increase in [Ca2+]i in presence of substance” value (“α-LTX-induced increase … of substance” for short) [5] was “complete inhibition” and the “first small α-LTX-induced increase in [Ca2+]i” value [6, 7] was “disappeared”. The “α-LTX-induced increase … of substance” value [6, 7] was 44 ± 6.0 nM, the “change in [Ca2+]i after preincubation with substance alone” value ([6]; 4 ng/ml or 400 ng/ml, 90 min preincubation, no α-LTX) was “no change in [Ca^2+]i” and the “α-LTX-induced increase in [Ca2+]i after preincubation” value ([6]; 4 ng/ml, 90 min preincubation, substance removed, then 75 nM α-LTX) was 95 ± 20.5 nM. The “plateau of [Ca2+]i after the peak” value ([6]; 4 ng/ml, 90 min preincubation, then 75 nM α-LTX) was 23 ± 2.6 nM, the “change in [Ca2+]i, BAY44-4400 given with piperazine” value ([6]; 400 ng/ml BAY44-4400 + 1 or 10 μM piperazine, untransfected and HC110-R-GFP-transfected cells) was “no change in [Ca^2+]i was detectable” and the “α-LTX-induced increase … of substance” value ([6]; 400 ng/ml added 6 min before 75 nM α-LTX) was 49 ± 4.2 nM. The “plateau of [Ca2+]i above initial values after the peak” value ([6]; 400 ng/ml added 6 min before 75 nM α-LTX, 8 min after peak) was 11 ± 1.4 nM, the “delay of the α-LTX-induced increase” value ([6]; 400 ng/ml versus 4 ng/ml, 90 min preincubation) was 12 min and the “Ca2+ response to substance alone” value ([6]; no α-LTX) was “does not influence the Ca^2+ concentration; also recorded: neither the very effective nematicide BAY44-4400 nor the virtually ineffective antipode PF1022-001 induces a Ca^2+ response”. For the same compound, the “Ca2+ response to substance alone” value ([6]; no α-LTX, listed as BAY 44-4400) was “in no comparable way with a change in the intracellular Ca^2+ concentration”, the “Ca2+-mediated response to substance alone” value ([6]; 100, 300 or 400 ng/ml and 1 or 10 μg/ml, 50 min, untransfected and HC110-R-GFP-transfected cells) was “At no concentration was a Ca^2+-mediated response detectable” and the “mode of action on α-LTX signalling” value ([6]; HC110-R-transfected HEK-293 cells) was “acts as antagonist of α-LTX”. The “first small α-LTX-induced increase in [Ca2+]i” value ([6]; incubation 6 minutes before 75 nM α-LTX) was “disappears”, the “reduction of second α-LTX-induced increase” value ([6]; incubation 6 minutes before 75 nM α-LTX, 15 minutes after α-LTX) was 85% and the “first α-LTX-induced increase in Ca2+” value ([6]; preincubated 60 minutes before 30 minutes FURA loading, 75 nM α-LTX) was “complete disappearance”. For the same compound, the “second α-LTX-induced increase in [Ca2+]i” value ([6]; preincubated 60 minutes before 30 minutes FURA loading, 30 minutes after 75 nM α-LTX) was 70 nM.

Reference: patent US20050037436A1, “Test systems and the use thereof for identifying and characterizing compounds” (priority 2000, published 2005)
